What was measured:
[1] = physchem; conditions: pH 7
Description: Determination of the Kinetic Solubility in Phosphate Buffer
After shaking for approximately 30 seconds the reduction in light transmission of these samples, at 650 nm, was measured (Molecular Devices Spectromax UV/visible spectrophotometer). A second measurement was taken at approximately 30 seconds later.

[2] = target: Human plasma kallikrein (Homo sapiens (Human), UniProt P03952); assay: Determination of the IC50 for plasma kallikrein; assay type: biochemical; conditions: fluorogenic substrate H-DPro-Phe-Arg-AFC, 37° C., read-out: IC50 (human PKal)
How it was run: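 Residual activity (initial rate, absorbance at 410 nm) gave the IC50. Reactions at 37° C combined human plasma kallikrein, substrate H-DPro-Phe-Arg-AFC and a range of inhibitor concentrations.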

[3] = target: Human KLK1 (Homo sapiens (Human), UniProt P06870); assay: Determination of the IC50 for KLK1; assay type: biochemical; conditions: Human KLK1, 37° C., substrate H-DVal-Leu-Arg-AFC; Table 12
How it was run: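 hKLK1 + H-DVal-Leu-Arg-AFC, 37° C, varied cpd conc. Initial rate by A410 change → residual activity → IC50.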

Human KLK1, sequence (P06870 25-262): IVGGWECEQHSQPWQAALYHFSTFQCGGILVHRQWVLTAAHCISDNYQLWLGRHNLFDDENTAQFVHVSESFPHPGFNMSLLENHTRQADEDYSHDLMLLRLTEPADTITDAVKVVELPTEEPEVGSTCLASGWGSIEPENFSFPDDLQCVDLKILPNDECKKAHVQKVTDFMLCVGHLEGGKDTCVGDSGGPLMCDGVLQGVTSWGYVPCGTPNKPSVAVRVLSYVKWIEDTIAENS
Human plasma kallikrein, sequence (P03952 391-638): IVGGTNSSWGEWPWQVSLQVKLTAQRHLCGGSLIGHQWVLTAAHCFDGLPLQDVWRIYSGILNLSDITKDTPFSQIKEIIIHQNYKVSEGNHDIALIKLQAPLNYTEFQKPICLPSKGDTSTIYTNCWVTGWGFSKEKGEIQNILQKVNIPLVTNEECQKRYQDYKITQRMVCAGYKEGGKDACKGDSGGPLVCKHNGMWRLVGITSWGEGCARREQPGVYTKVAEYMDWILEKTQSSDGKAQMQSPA
Human plasma kallikrein, sequence (P03952 20-390 partner): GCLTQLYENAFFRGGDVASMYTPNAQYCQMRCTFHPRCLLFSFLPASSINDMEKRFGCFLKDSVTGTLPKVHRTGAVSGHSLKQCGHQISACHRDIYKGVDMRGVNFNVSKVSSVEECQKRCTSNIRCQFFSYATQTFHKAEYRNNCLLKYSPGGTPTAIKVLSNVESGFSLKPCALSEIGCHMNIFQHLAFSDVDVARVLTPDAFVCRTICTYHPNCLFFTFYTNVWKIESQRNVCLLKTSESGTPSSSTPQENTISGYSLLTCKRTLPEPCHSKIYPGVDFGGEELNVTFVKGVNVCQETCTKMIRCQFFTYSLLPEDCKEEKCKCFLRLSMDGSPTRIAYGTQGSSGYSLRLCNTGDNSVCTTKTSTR

## CN[C@H](CC1CCCCC1)C(=O)N[C@@H](Cc1ccccc1)C(=O)NCc1ccc(CN)c(F)c1 [Example 40, (R)-N-[(S)-1-(4-Aminomethyl-3-fluoro-benzylcarbamoyl)-2-phenyl-ethyl]-3-cyclohexyl-2-methylamino-propionamide]
[1]
  solubility in PO4 buffer: > 235 µM
[2]
  IC50: 1.8 µM
[3]
  IC50: > 10 µM

## CN[C@H](CC1CCCCC1)C(=O)N[C@@H](Cc1ccc(Cl)c(Cl)c1)C(=O)NCc1ccc(CN)c(F)c1 [Example 41, (R)-N-[(S)-1-(4-Aminomethyl-3-fluoro-benzylcarbamoyl)-2-(3,4-dichloro-phenyl)-ethyl]-3-cyclohexyl-2-methylamino-propionamide]
[1]
  solubility in PO4 buffer: > 235 µM
[2]
  IC50: 1.3 µM
[3]
  IC50: 2.5 µM

## CN(CC(=O)O)[C@H](CC1CCCCC1)C(=O)N[C@@H](Cc1ccccc1)C(=O)NCc1ccc(CN)c(F)c1 [Example 42, ({(R)-1-[(S)-1-(4-Aminomethyl-3-fluoro-benzylcarbamoyl)-2-phenyl-ethylcarbamoyl]-2-cyclohexyl-ethyl}-methyl-amino)-acetic acid]
[1]
  solubility in PO4 buffer: > 235 µM
[2]
  IC50: 0.53 µM
[3]
  IC50: > 10 µM

## CN(CC(=O)O)[C@H](CC1CCCCC1)C(=O)N[C@@H](Cc1ccc(Cl)c(Cl)c1)C(=O)NCc1ccc(CN)c(F)c1 [Example 43, ({(R)-1-[(S)-1-(4-Aminomethyl-3-fluoro-benzylcarbamoyl)-2-(3,4-dichloro-phenyl)-ethylcarbamoyl]-2-cyclohexyl-ethyl}-methyl-amino)-acetic acid]
[1]
  solubility in PO4 buffer: > 235 µM
[2]
  IC50: 1.3 µM
[3]
  IC50: > 10 µM

## CCOc1ccc(C[C@@H](NC(=O)C(C)C)C(=O)N(C)[C@@H](Cc2ccccc2)C(=O)NCc2ccc(CN)cc2)cc1 [Example 44, N-[(R)-1-{[(S)-1-(4-Aminomethyl-benzylcarbamoyl)-2-phenyl-ethyl]-methyl-carbamoyl}-2-(4-ethoxy-phenyl)-ethyl]-isobutyramide]
[1]
  solubility in PO4 buffer: > 235 µM
[2]
  IC50: 0.18 µM
[3]
  IC50: > 10 µM

## CCCN(C)[C@H](CC1CCCCC1)C(=O)N[C@@H](Cc1ccccc1)C(=O)NCc1ccc(CN)cc1 [Example 45, (R)-N-[(S)-1-(4-Aminomethyl-benzylcarbamoyl)-2-phenyl-ethyl]-3-cyclohexyl-2-(methyl-propyl-amino)-propionamide]
[1]
  solubility in PO4 buffer: > 235 µM
[2]
  IC50: 0.79 µM
[3]
  IC50: > 10 µM

## NCc1ccc(CNC(=O)[C@H](Cc2ccccc2)NC(=O)[C@@H](CC2CCCCC2)NCCO)cc1 [Example 51, (R)-N-[(S)-1-(4-Aminomethyl-benzylcarbamoyl)-2-phenyl-ethyl]-3-cyclohexyl-2-(2-hydroxy-ethylamino)-propionamide]
[1]
  solubility in PO4 buffer: > 235 µM
[2]
  IC50: 1 µM
[3]
  IC50: > 10 µM

## NCc1ccc(CNC(=O)[C@H](Cc2ccccc2)NC(=O)[C@H](N)C(C2CCCCC2)C2CCCCC2)cc1 [Example 52, (R)-2-Amino-N-[(S)-1-(4-aminomethyl-benzylcarbamoyl)-2-phenyl-ethyl]-3,3-dicyclohexyl-propionamide]
[1]
  solubility in PO4 buffer: > 235 µM
[2]
  IC50: 0.86 µM
[3]
  IC50: 9.5 µM

## CCCN(CCC)[C@H](CC1CCCCC1)C(=O)N[C@@H](Cc1ccccc1)C(=O)NCc1ccc(CN)cc1 [Example 53, (R)-N-[(S)-1-(4-Aminomethyl-benzylcarbamoyl)-2-phenyl-ethyl]-3-cyclohexyl-2-dipropylamino-propionamide]
[1]
  solubility in PO4 buffer: > 235 µM
[2]
  IC50: 0.65 µM
[3]
  IC50: > 10 µM

## CCOc1ccc(C[C@@H](NC(=O)CC)C(=O)N2CC[C@H](c3ccccc3)[C@H]2C(=O)NCc2ccc(CN)cc2)cc1 [Example 67, (2S,3R)-1-[(R)-3-(4-Ethoxy-phenyl)-2-propionylamino-propionyl]-3-pheny-pyrrolidine-2-carboxylic acid 4-aminomethyl-benzylamide]
[1]
  solubility in PO4 buffer: > 235 µM
[2]
  IC50: 1.6 µM
[3]
  IC50: > 10 µM

Reference: patent US9234000B2, “Benzylamine derivatives as inhibitors of plasma kallikrein” (KalVista Pharmaceuticals Limited, priority 2011, dated 2016)
